Measurements published in patent publication US9695155B2, “Herbicidal substituted pyrimidinyloxy benzene compounds” (E. I. DU PONT DE NEMOURS AND COMPANY, priority 2013, dated 2017).

Experiments:
[1] = system: oilseed rape; assay: Test D postemergence; format: in vivo, Brassica napus
Method in brief: (§1)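 In a controlled growth environment, treated and control plants were held 7 to 21 days, then compared visually. Damage was scored 0–100, where 100 means complete control. Sprays contained surfactant in a non-phytotoxic solvent; post-applied plants were at the 1- to 4-leaf stage.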

[2] = system: wild buckwheat; assay: Test D postemergence; format: in vivo, Polygonum convolvulus
Method in brief: as §1

[3] = system: bluegrass; assay: Test D postemergence; format: in vivo, Poa annua
Method in brief: as §1

[4] = system: bromegrass, downy; assay: Test D preemergence; format: in vivo, Bromus tectorum
Method in brief: as §1

[5] = system: Italian ryegrass; assay: Test D postemergence; format: in vivo, Lolium multiflorum
Method in brief: as §1

[6] = system: field violet; assay: Test D preemergence; format: in vivo, Viola arvensis
Method in brief: as §1

[7] = system: field violet; assay: Test D postemergence; format: in vivo, Viola arvensis
Method in brief: as §1

[8] = system: chamomile; assay: Test D postemergence; format: in vivo, Matricaria inodora
Method in brief: as §1

[9] = system: green foxtail; assay: Test D postemergence; format: in vivo, Setaria viridis
Method in brief: as §1

[10] = system: lambsquarters; assay: Test D preemergence; format: in vivo, Chenopodium album
Method in brief: as §1

[11] = system: speedwell; assay: Test D preemergence; format: in vivo, Veronica persica
Method in brief: as §1

[12] = 31 g ai/ha, scale 0 to 100 (0 no effect, 100 complete control)
[13] = 62 g ai/ha, scale 0 to 100 (0 no effect, 100 complete control)
[14] = 125 g ai/ha, scale 0 to 100 (0 no effect, 100 complete control)
[15] = Postemergence, 62 g ai/ha, scale 0 to 100 (0 no effect, 100 complete control)
[16] = Postemergence, 31 g ai/ha, scale 0 to 100 (0 no effect, 100 complete control)
[17] = Postemergence, 125 g ai/ha, scale 0 to 100 (0 no effect, 100 complete control)
[18] = postemergence, 16 g ai/ha, scale 0 to 100, 0 no effect, 100 complete control
[19] = 16 g ai/ha, scale 0 (no effect) to 100 (complete control)

Structure (SMILES): FCc1cccc(Oc2ncc(Cl)cn2)c1-n1cc(I)cn1 [Compound 245]
- Plant response rating, Oilseed Rape ([1]; 16 g ai/ha, scale 0-100): 30
- Plant response rating, Oilseed Rape [1, 12]: 45
- Plant response rating, Oilseed Rape [1, 13]: 60
- Plant response rating, Oilseed Rape [1, 14]: 75
- Plant response rating, Buckwheat, Wild [2, 15]: 75
- Plant response rating, Buckwheat, Wild [2, 16]: 70
- Plant response rating, Buckwheat, Wild [2, 17]: 90
- Plant response rating, Buckwheat, Wild [2, 18]: 70
- Plant response rating, Bluegrass [3, 15]: 15
- Plant response rating, Bluegrass [3, 16]: 20
- Plant response rating, Bluegrass [3, 17]: 30
- Plant response rating, Bluegrass [3, 18]: 10
- Plant response rating, Bromegrass, Downy [4, 19]: 0
- Plant response rating, Bromegrass, Downy ([4]; 31 g ai/ha, scale 0-100): 0
- Plant response rating, Bromegrass, Downy ([4]; 62 g ai/ha, scale 0-100): 35
- Plant response rating, Bromegrass, Downy ([4]; 125 g ai/ha, scale 0-100): 40
- Plant response rating, Ryegrass, Italian ([5]; 16 g ai/ha, scale 0-100): 0
- Plant response rating, Ryegrass, Italian [5, 12]: 10
- Plant response rating, Ryegrass, Italian [5, 13]: 20
- Plant response rating, Ryegrass, Italian [5, 14]: 20
- Plant response rating, Field Violet [6, 19]: 55
- Plant response rating, Field Violet ([6]; 31 g ai/ha, scale 0-100): 95
- Plant response rating, Field Violet ([6]; 62 g ai/ha, scale 0-100): 100
- Plant response rating, Field Violet ([6]; 125 g ai/ha, scale 0-100): 100
- Plant response rating, Field Violet ([7]; 16 g ai/ha, scale 0-100): 25
- Plant response rating, Field Violet [7, 12]: 80
- Plant response rating, Field Violet [7, 13]: 90
- Plant response rating, Field Violet [7, 14]: 90
- Plant response rating, Chamomile ([8]; 16 g ai/ha, scale 0-100): 30
- Plant response rating, Chamomile [8, 12]: 30
- Plant response rating, Chamomile [8, 13]: 45
- Plant response rating, Chamomile [8, 14]: 40
- Plant response rating, Foxtail, Green ([9]; 16 g ai/ha, scale 0-100): 10
- Plant response rating, Foxtail, Green [9, 12]: 20
- Plant response rating, Foxtail, Green [9, 13]: 35
- Plant response rating, Foxtail, Green [9, 14]: 45
- Plant response rating, Lambsquarters [10, 19]: 85
- Plant response rating, Lambsquarters ([10]; 31 g ai/ha, scale 0-100): 100
- Plant response rating, Lambsquarters ([10]; 62 g ai/ha, scale 0-100): 100
- Plant response rating, Lambsquarters ([10]; 125 g ai/ha, scale 0-100): 100
- Plant response rating, Speedwell [11, 19]: 5
- Plant response rating, Speedwell ([11]; 31 g ai/ha, scale 0 (no effect) to 100 (complete control)): 100
- Plant response rating, Speedwell ([11]; 125 g ai/ha, scale 0-100): 100
